Earlier results as cited in patent US12455270B2, “Mesh for dissolution test” (Shionogi & Co., Ltd., priority 2019, dated 2025).

Experiments:
[1] = input parameter of GastroPlus simulation
[2] = input parameter of GastroPlus simulation; remark: listed apart in the source

NC(=O)N1c2ccccc2C=Cc2ccccc21 [Carbamazepine]
CL [1]: 0.9087 L/h | Plasma Fup [1]: 28.8% | Vc [1]: 0.6971 L/kg | k12 [1]: 0.165 h⁻¹ | logP [2]: 1.8

Cc1ccc(-c2cc(C(F)(F)F)nn2-c2ccc(S(N)(=O)=O)cc2)cc1 [Celecoxib]
CL [1]: 28.558 L/h | Plasma Fup [1]: 2.1% | Vc [1]: 1.0902 L/kg | k12 [1]: 0.1955 h⁻¹ | k21 [1]: 0.07268 h⁻¹ | logP [2]: 4.21
